Measurements: patent US6835382B2, “Ii peptide therapeutics to enhance antigen presentation” (University of Massachusetts, priority 1996, dated 2004)
Positions of bridges follow the written chain, without caps; N, C: chain ends. Non-standard residues stand in square brackets, D forms with d. No end group written: not given here. hArg = N=C(N)NCCCC[C@H](N)C(=O)O; Cit = NC(=O)NCCC[C@H](N)C(=O)O

Tested on: murine E^k MHC class II allele
Assay: antigenic peptide prepulse assay, E^k allele (fixed APC prepulsed with PGCC81-104)
Type: cell-based
Settings: AE peptide 64 μM; for Activity in antigenic peptide prepulse assay, E^k (baseline = 1.00): Table 25, prepulse 2.5 μM antigenic peptide, supernatant 1:10; for Activity in antigenic peptide prepulse assay, E^k (baseline = 1.0): prepulse 1.25 μM antigenic peptide
How it was run: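 Paraformaldehyde-fixed APC were loaded for 6 h with antigenic peptide (PGCC81-104 for E^k), washed, then cultured for 24 h with specific T hybridoma plus AE101 peptide. Interleukin release was measured as HT-2 proliferation on supernatant.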

## Ac-A[Cit]NKNPK-NH2 [AE351]
  Activity in antigenic peptide prepulse assay, E^k (baseline = 1.00): 0.90

## Ac-FK HArg MYP Cit-NH2 [AE371]
Table 26, supernatant 1:8
  Activity in antigenic peptide prepulse assay, E^k (baseline = 1.0): 0.99

## Ac-LK HArg KYPK-NH2 [AE363]
Table 26, supernatant 1:8
  Activity in antigenic peptide prepulse assay, E^k (baseline = 1.0): 0.97

## Ac-LKMKYPK-NH2 [AE362]
Table 26, supernatant 1:8
  Activity in antigenic peptide prepulse assay, E^k (baseline = 1.0): 0.91

## Ac-LR HArg KYP Cit-NH2 [AE366]
Table 26, supernatant 1:8
  Activity in antigenic peptide prepulse assay, E^k (baseline = 1.0): 0.94

## Ac-LR HArg MYPK-NH2 [AE365]
Table 26, supernatant 1:8
  Activity in antigenic peptide prepulse assay, E^k (baseline = 1.0): 0.42

## Ac-LR Orn K HArg PK-NH2 [AE340]
  Activity in antigenic peptide prepulse assay, E^k (baseline = 1.00): 0.83

## Ac-LRLKYPN-NH2 [AE368]
Table 26, supernatant 1:8
  Activity in antigenic peptide prepulse assay, E^k (baseline = 1.0): 0.92

## Ac-LRMKLPK (lactam 4-C) [AE382]
Table 28, supernatant 1:4
  Activity in antigenic peptide prepulse assay, E^k (baseline = 1.0): 0.70

## Ac-LRMKNPF-NH2 [AE350]
  Activity in antigenic peptide prepulse assay, E^k (baseline = 1.00): 0.86

## Ac-LRMKYPN-NH2 [AE370]
Table 26, supernatant 1:8
  Activity in antigenic peptide prepulse assay, E^k (baseline = 1.0): 0.58

## Ac-LRMKYP[Cit]-NH2 [AE364]
Table 26, supernatant 1:8
  Activity in antigenic peptide prepulse assay, E^k (baseline = 1.0): 0.93

## Ac-LRMMYP[Cit]-NH2 [AE367]
Table 26, supernatant 1:8
  Activity in antigenic peptide prepulse assay, E^k (baseline = 1.0): 0.99

## Ac-L[hArg]LKYPK-NH2 [AE361]
Table 26, supernatant 1:8
  Activity in antigenic peptide prepulse assay, E^k (baseline = 1.0): 1.00

## Ac-L[hArg]MKYPK-NH2 [AE360]
Table 26, supernatant 1:8
  Activity in antigenic peptide prepulse assay, E^k (baseline = 1.0): 0.94

## cyclic LRMKLPK (bridge (positions not given here); also: cyclic, ring type not given here) [AE381, “head-to-tail” cyclization from the amino-terminus to the carboxyl-terminus of AE114]
Table 28, supernatant 1:4
  Activity in antigenic peptide prepulse assay, E^k (baseline = 1.0): 0.28
